The test concerns the target T1, TcOctβ2R (β-adrenergic-like octopamine receptor) (Tribolium castaneum, UniProt N1NSX1).
T1 construct: full ORF (411 amino acids), pcDNA3.1(+), transiently expressed in HEK 293 cells
T1 sequence (N1NSX1 1-411): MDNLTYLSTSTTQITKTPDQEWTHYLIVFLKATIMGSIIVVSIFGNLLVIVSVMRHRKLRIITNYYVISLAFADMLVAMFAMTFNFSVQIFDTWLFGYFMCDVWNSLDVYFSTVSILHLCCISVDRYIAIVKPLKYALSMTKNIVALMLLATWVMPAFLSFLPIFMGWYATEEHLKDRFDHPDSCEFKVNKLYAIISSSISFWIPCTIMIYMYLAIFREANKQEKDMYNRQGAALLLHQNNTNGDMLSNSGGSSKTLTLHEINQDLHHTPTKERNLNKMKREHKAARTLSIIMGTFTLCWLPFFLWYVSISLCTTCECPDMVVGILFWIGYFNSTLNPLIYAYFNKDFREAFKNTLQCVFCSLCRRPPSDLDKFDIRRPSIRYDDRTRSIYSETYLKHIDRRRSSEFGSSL
In words: GloSensor cAMP assay in HEK […] cells expressing the receptor (agonist). The format is cell-based. On the technique in general: Cyclic AMP is a second messenger, typically raised through Gs and lowered through Gi signalling.
Take `c1ccc2c(CC3=NCCN3)cccc2c1` [naphazoline]: the EC50 (usually the concentration giving half of the maximal effect) stood at 7.1 nM.
With `NCC(O)c1ccc(O)cc1` (stereo not drawn) [octopamine], the response was half-maximal at 28 nM (EC50).
Take `NCCc1ccc(O)cc1` [tyramine]: the response was half-maximal at 200 nM (EC50).

Values taken from PMC8305664, “Knockdown of a β-Adrenergic-Like Octopamine Receptor Affects Locomotion and Reproduction of Tribolium castaneum” (International Journal of Molecular Sciences, 2021).
